# Measured values as given in US4399817A, “Boron containing polyphosphonates for the treatment of calcific tumors” (The Procter & Gamble Company, priority 1981, dated 1983).
# Columns and labels:
# [1] = Crystal Growth Inhibition Test; conditions: for Lag Time: pH 7.4
# Protocol: The test is conducted as follows:
# 50 ml of a 0.01 M KH2 PO4 stock solution is diluted with 1000 ml N2 purged distilled water. 1 ml of an aqueous solution of the polyphosphonate to be tested (at a concentration to provide the desired ultimate concentration in the reaction mixture) is added to the diluted KH2 PO4 solution and the solution is adjusted to pH 7.4 with potassium hydroxide. To this solution is added 50 ml of a 0.0175 N CaCl2 solution preadjusted to pH 7.4. The KOH consumption is recorded as a function of time. The rate of KOH consumption is directly related to the rate of calcium phosphate formation. In the absence of polyphosphonate the formation of calcium phosphate starts at t=o, i.e. when the solutions of KH2 PO4 and CalCl2 are mixed. Low levels of polyphosphonates are capable of inhibiting the formation of calcium phosphate for 20 minutes or longer. This effect depends on the propensity of the polyphosphonates to adsorb on calcium phosphate crystal nuclei.
# 1-Methyl, 2-(2,2-ethane diphosphonic acid) o-carborane (MECB) was subjected to the Crystal Growth Inhibition Test.
# [2] = Oral capsules followed by neutron irradiation in adult with a bone tumor (Example VIII); assay type: in vivo, adult (human); conditions: oral capsules (350 mg MECB or replacement) twice daily, ten days; 37 eV neutron beam about 24 hrs after last capsule
# Protocol: Capsules are prepared by conventional methods, comprised as follows:
# To a 76 kg adult with a bone tumor are administered orally twice daily the above capsules for a period of ten days. About 24 hrs after the last capsule is administered, the tumor site is irradiated with a 37 eV neutron beam of 2.4×10^8 neutrons cm^-2 s^-1.
# [3] = Animal skeletal uptake test (99mTc scan); assay type: in vivo, Rabbits; conditions: 99mTc-labelled solution, 1.0 ml injected; scanned at 3 hrs and 21 hrs
# Protocol: In this test the skeletal uptake of a polyphosphonate compound is established as follows:
# A reducing solution is prepared by mixing 5.0 ml of a 0.34 N NTA solution, 1.0 ml of a 0.84 M SnCl2 solution and 3.0 ml H2 O. The pH of the solution is adjusted to 5.6 with 1.0 N NaOH. 100 ul of the reducing solution is added to 1.0 ml of a ^99m TcO4^- solution, containing 19.6 mCi. The reduction of TcO4^- is checked by TLC. 0.9 ml of a 35 mg/ml solution of a boron polyphosphonate is added to the reduced technetiate solution. Rabbits are injected with 1.0 ml each of this solution. The animals are scanned for skeletal uptake at 3 hrs and 21 hrs after injection.
# [4] = Water solubility (remark in synthesis); assay type: physicochemical
# Protocol: 1,2-Diphosphono-o-carborane was prepared as follows: To a solution of 5 g o-carborane in dry THF was added dropwise 46.7 ml of a 1.5 N solution of n-butyllithium at 0° C. To the mixture was then quickly added 11 g diethyl chlorophosphite. The solution was refluxed for several hours. The THF was evaporated. The resulting residue contained unreacted o-carborane and 1,2-di(diethyl phosphite) o-carborane. The latter was hydrolized to the corresponding acid in 500 ml 6 N HCl by refluxing during 24 hours, after which the remaining HCl solution was evaporated. […] The water was then evaporated, and the residue mixed with 50 ml 10% hydrogen peroxide. The mixture was carefully refluxed until the reaction was completed. The structure of 1,2-diphosphono-o-carborane was verified by ^31 P and ^11 B NMR.
# [5] = Oral tablets followed by neutron irradiation in patient with calcified tumor (Example IX); assay type: in vivo, patient (human)
# Protocol: Tablets are prepared by conventional methods, formulated as follows: […]
molecule,measurement,setting,value
"CC(O)(P(=O)(O)O)P(=O)(O)O [EHDP, Ethane hydroxy diphosphonate, reference compound]",Lag Time,[1]; Concentration 1 × 10^-6 Mole,82 min
"1-Methyl, 2-(2,2-ethane diphosphonic acid) o-carborane [MECB]",level of alpha and Li particles generated in the tumor tissue,[2],effective level
same,Lag Time,[1]; Concentration 1 × 10^-6 Mole,25 min
same,Lag Time,[1]; Concentration 2 × 10^-6 Mole,37 min
same,capability to retard the formation of calcium phosphate,"[1]; compared with Cl2 MDP, Table I",the same as that of Cl2 MDP
same,skeletal affinity,[3],high skeletal affinity
"1,2-dicarbaclosododeca borane (12) [o-carborane]",solubility in water,[4],not soluble in water
"O=P(O)(O)C(Cl)(Cl)P(=O)(O)O [Cl2 MDP, dichloromethylene diphosphonate, reference compound]",Lag Time,[1]; Concentration 1 × 10^-6 Mole,18 min
same,Lag Time,[1]; Concentration 2 × 10^-6 Mole,41 min
"1,2-di(2-chloro-2,2-ethane diphosphonic acid)o-carborane [DC1EDP]",deposition of 10B in the calcified tumor tissue,[5]; oral tablets (25 mg) four times daily,significant amounts
same,levels of localized alpha particles emitted,"[5]; oral tablets four times daily, irradiation by 37 eV neutrons",effective levels
